Activity calls are given as the source filed them.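 How the source made its calls: active means a rise in signal, meaning less cAMP, whose fitted curve reaches 40% at or below the top valid tested dose; inconclusive means flat fit between 30% and 70%, or a poor fit; inactive means the rest.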
Test system: Drosophila melanogaster bursicon receptor LGR2 (rickets)
Assay: bursicon receptor inhibitors, cAMP readout – cell-based, HEK293 transfected, TR-FRET cAMP, dry powder, orthogonal assay for LGR2 antagonist project, dose response (AID 977609)
Details: bursicon-stimulated cAMP, Lance TR-FRET; for inhibition of cAMP: at 50 µM (top of the series)

SMILES | AC40 | inhibition of cAMP
C[C@H](CO)N1C[C@H](C)[C@H](CN(C)C(=O)Nc2ccc(F)cc2)OCCCC[C@H](C)Oc2ccc(NC(=O)C3CCCCC3)cc2C1=O | 501 nM | –
C[C@H](CO)N1C[C@H](C)[C@H](CN(C)C(=O)Nc2ccccc2)OCCCC[C@H](C)Oc2ccc(NC(=O)NC3CCCCC3)cc2C1=O | 3220 nM | –
C[C@@H]1CCCCO[C@@H](CN(C)C(=O)Nc2cccc3ccccc23)[C@H](C)CN([C@H](C)CO)C(=O)c2cc(NC(=O)C3CCCCC3)ccc2O1 | – | -5.85% (inactive)
C[C@H](CO)N1C[C@H](C)[C@H](CN(C)C(=O)Nc2ccc(F)cc2)OCCCC[C@H](C)Oc2ccc(NC(=O)Nc3ccc(F)cc3)cc2C1=O | 4690 nM | –
C[C@@H]1CCCCO[C@H](CN(C)C(=O)Nc2cccc3ccccc23)[C@H](C)CN([C@H](C)CO)C(=O)c2cc(NC(=O)C3CCCCC3)ccc2O1 | > 50000 nM (inactive) | –
C[C@H](CO)N1C[C@H](C)[C@H](CN(C)C(=O)Nc2ccc3ccccc3c2)OCCCC[C@H](C)Oc2ccc(NC(=O)C3CCCCC3)cc2C1=O | 219 nM | –
C[C@H](CO)N1C[C@H](C)[C@H](CN(C)C(=O)Nc2cccc3ccccc23)OCCCC[C@H](C)Oc2ccc(NC(=O)CCC(F)(F)F)cc2C1=O | 1950 nM | –
COc1ccc(NC(=O)N(C)C[C@@H]2OCCCC[C@H](C)Oc3ccc(NC(=O)C4CCCCC4)cc3C(=O)N([C@H](C)CO)C[C@@H]2C)cc1 | 1480 nM | –
C[C@@H]1CN([C@@H](C)CO)C(=O)c2cc(NC(=O)C3CCCCC3)ccc2O[C@@H](C)CCCCO[C@@H]1CN(C)C(=O)Nc1cccc2ccccc12 | – | 10.1% (inactive)
C[C@H](CO)N1C[C@H](C)[C@H](CN(C)C(=O)Nc2ccc(F)cc2)OCCCC[C@H](C)Oc2ccc(NC(=O)C3CC3)cc2C1=O | 49600 nM | –
C[C@@H]1CCCCO[C@@H](CN(C)C(=O)Nc2cccc3ccccc23)[C@@H](C)CN([C@H](C)CO)C(=O)c2cc(NC(=O)C3CCCCC3)ccc2O1 | – | -2.89% (inactive)
C[C@H](CO)N1C[C@H](C)[C@H](CN(C)C(=O)Nc2ccc(F)cc2)OCCCC[C@H](C)Oc2ccc(NC(=O)C3CCCCCC3)cc2C1=O | 248 nM | –
C[C@H](CO)N1C[C@H](C)[C@H](CN(C)C(=O)Nc2cccc3ccccc23)OCCCC[C@H](C)Oc2ccc(NC(=O)c3ccccc3)cc2C1=O | 2490 nM | –
C[C@H](CO)N1C[C@H](C)[C@H](CN(C)C(=O)Nc2ccc(F)cc2)OCCCC[C@H](C)Oc2ccc(NC(=O)C3CCC3)cc2C1=O | 4980 nM | –
COc1ccc(S(=O)(=O)N(C)C[C@@H]2OCCCC[C@H](C)Oc3ccc(NS(=O)(=O)c4ccc(F)cc4)cc3C(=O)N([C@@H](C)CO)C[C@@H]2C)cc1 | > 50000 nM (inactive) | –
C[C@H](CO)N1C[C@H](C)[C@H](CN(C)C(=O)Nc2ccccc2)OCCCC[C@H](C)Oc2ccc(NC(=O)CCC(F)(F)F)cc2C1=O | 1530 nM | –
C[C@H](CO)N1C[C@H](C)[C@H](CN(C)C(=O)Nc2ccc(C(F)(F)F)cc2)OCCCC[C@H](C)Oc2ccc(NC(=O)NC3CCCCC3)cc2C1=O | 2710 nM | –
C[C@H](CO)N1C[C@H](C)[C@H](CN(C)C(=O)Nc2ccccc2)OCCCC[C@H](C)Oc2ccc(NC(=O)Nc3ccc4c(c3)OCO4)cc2C1=O | 7540 nM | –
C[C@H]1CCCCO[C@@H](CN(C)S(=O)(=O)c2ccc(Cl)cc2)[C@@H](C)CN([C@@H](C)CO)C(=O)c2cc(NC(=O)NC3CCCCC3)ccc2O1 | > 50000 nM (inactive) | –
C[C@@H]1CN([C@H](C)CO)C(=O)c2cc(NC(=O)C3CCCCC3)ccc2O[C@@H](C)CCCCO[C@H]1CN(C)C(=O)Nc1cccc2ccccc12 | > 50000 nM (inactive) | –
C[C@@H]1CCCCO[C@@H](CN(C)C(=O)Nc2cccc3ccccc23)[C@H](C)CN([C@@H](C)CO)C(=O)c2cc(NC(=O)C3CCCCC3)ccc2O1 | > 50000 nM (inactive) | –
C[C@@H]1CN([C@H](C)CO)C(=O)c2cc(NC(=O)C3CCCCC3)ccc2O[C@@H](C)CCCCO[C@@H]1CN(C)C(=O)Nc1cccc2ccccc12 | > 50000 nM (inactive) | –
C[C@@H]1CCCCO[C@H](CN(C)C(=O)Nc2cccc3ccccc23)[C@H](C)CN([C@@H](C)CO)C(=O)c2cc(NC(=O)C3CCCCC3)ccc2O1 | – | 16% (inactive)
C[C@H]1CCCCO[C@@H](CN(C)C(=O)Nc2cccc3ccccc23)[C@@H](C)CN([C@@H](C)CO)C(=O)c2cc(NC(=O)C3CCCCC3)ccc2O1 | 353 nM | –
C[C@H](CO)N1C[C@H](C)[C@H](CN(C)C(=O)Nc2ccccc2F)OCCCC[C@H](C)Oc2ccc(NC(=O)C3CCCCC3)cc2C1=O | 515 nM | –
C[C@H](CO)N1C[C@H](C)[C@H](CN(C)C(=O)Nc2cccc3ccccc23)OCCCC[C@H](C)Oc2ccc(NC(=O)NC3CCCCC3)cc2C1=O | 1650 nM | –
C[C@H](CO)N1C[C@H](C)[C@H](CN(C)C(=O)Nc2ccccc2)OCCCC[C@H](C)Oc2ccc(NC(=O)Nc3ccccc3)cc2C1=O | 5860 nM | –

SMILES | AC40 | inhibition of cAMP
COc1ccc(S(=O)(=O)N(C)C[C@@H]2OCCCC[C@H](C)Oc3ccc(NS(=O)(=O)c4ccc(Cl)cc4)cc3C(=O)N([C@@H](C)CO)C[C@@H]2C)cc1 | – | 6.28% (inactive)
C[C@H]1CCCCO[C@@H](CN(C)C(=O)Nc2ccccc2)[C@@H](C)CN([C@@H](C)CO)C(=O)c2cc(NC(=O)NC3CCCCC3)ccc2O1 | 3580 nM | –
CC(C)(C)c1ccc(-c2nc(-c3ccncc3)no2)cc1 | – | 9.18% (inactive)
C[C@H](CO)N1C[C@H](C)[C@H](CN(C)C(=O)Nc2ccc(F)cc2)OCCCC[C@H](C)Oc2ccc(NC(=O)C3CCOCC3)cc2C1=O | 25000 nM | –
C[C@H]1CCCCO[C@H](CN(C)C(=O)Nc2cccc3ccccc23)[C@@H](C)CN([C@@H](C)CO)C(=O)c2cc(NC(=O)C3CCCCC3)ccc2O1 | > 50000 nM (inactive) | –
C[C@H](CO)N1C[C@H](C)[C@@H](CN(C)C(=O)Nc2cccc3ccccc23)OCCCC[C@H](C)Oc2ccc(NC(=O)C3CCCCC3)cc2C1=O | > 50000 nM (inactive) | –
COc1ccc(NC(=O)N(C)C[C@@H]2OCCCC[C@H](C)Oc3ccc(NC(=O)NC4CCCCC4)cc3C(=O)N([C@H](C)CO)C[C@@H]2C)cc1 | 2040 nM | –
C[C@H](CO)N1C[C@H](C)[C@H](CN(C)C(=O)Nc2cccc(F)c2)OCCCC[C@H](C)Oc2ccc(NC(=O)C3CCCCC3)cc2C1=O | 858 nM | –
C[C@H](CO)N1C[C@H](C)[C@H](CN(C)C(=O)Nc2ccc(Cl)cc2)OCCCC[C@H](C)Oc2ccc(NC(=O)C3CCCCC3)cc2C1=O | 853 nM | –
C[C@H]1CCCCO[C@@H](CN(C)C(=O)Nc2ccc3c(c2)OCO3)[C@@H](C)CN([C@@H](C)CO)C(=O)c2cc(NC(=O)NC3CCCCC3)ccc2O1 | 3790 nM | –
Cc1ccc(NC(=O)N(C)C[C@@H]2OCCCC[C@H](C)Oc3ccc(NC(=O)C4CCCCC4)cc3C(=O)N([C@H](C)CO)C[C@@H]2C)cc1 | 1050 nM | –
C[C@H](CO)N1C[C@H](C)[C@H](CN(C)C(=O)Nc2cccc3ccccc23)OCCCC[C@H](C)Oc2ccc(NC(=O)C3CCCCC3)cc2C1=O | 129 nM | –
C[C@H](CO)N1C[C@H](C)[C@H](CN(C)C(=O)Nc2ccc3c(c2)OCO3)OCCCC[C@H](C)Oc2ccc(NC(=O)NC3CCCCC3)cc2C1=O | 5490 nM | –
CC(=O)Nc1ccc2c(c1)C(=O)N([C@H](C)CO)C[C@H](C)[C@H](CN(C)C(=O)Nc1ccc(F)cc1)OCCCC[C@H](C)O2 | > 50000 nM (inactive) | –
C[C@@H]1CCCCO[C@@H](CN(C)C(=O)Nc2cccc3ccccc23)[C@@H](C)CN([C@@H](C)CO)C(=O)c2cc(NC(=O)C3CCCCC3)ccc2O1 | > 50000 nM (inactive) | –
C[C@H](CO)N1C[C@H](C)[C@H](CN(C)C(=O)Nc2ccc(F)cc2)OCCCC[C@H](C)Oc2ccc(NC(=O)Nc3ccccc3)cc2C1=O | 2890 nM | –
C[C@@H]1CCCCO[C@H](CN(C)C(=O)Nc2cccc3ccccc23)[C@@H](C)CN([C@H](C)CO)C(=O)c2cc(NC(=O)C3CCCCC3)ccc2O1 | > 50000 nM (inactive) | –
C[C@H](CO)N1C[C@H](C)[C@H](CN(C)C(=O)Nc2ccc3c(c2)OCO3)OCCCC[C@H](C)Oc2ccc(NC(=O)C3CCCCC3)cc2C1=O | 837 nM | –
C[C@H](CO)N1C[C@H](C)[C@H](CN(C)C(=O)Nc2ccccc2)OCCCC[C@H](C)Oc2ccc(NC(=O)C3CCCCC3)cc2C1=O | 736 nM | –
C[C@H]1CCCCO[C@@H](CN(C)C(=O)Nc2ccc(C(F)(F)F)cc2)[C@@H](C)CN([C@@H](C)CO)C(=O)c2cc(NC(=O)CCC(F)(F)F)ccc2O1 | 2160 nM | –
C[C@@H]1CCCCO[C@H](CN(C)C(=O)Nc2cccc3ccccc23)[C@@H](C)CN([C@@H](C)CO)C(=O)c2cc(NC(=O)C3CCCCC3)ccc2O1 | > 50000 nM (inactive) | –
C[C@H]1CCCCO[C@@H](CN(C)C(=O)Nc2ccc(F)cc2)[C@@H](C)CN([C@@H](C)CO)C(=O)c2cc(NC(=O)C3CCCCC3)ccc2O1 | 1380 nM | –
C[C@H](CO)N1C[C@H](C)[C@H](CN(C)C(=O)Nc2ccc(C(F)(F)F)cc2)OCCCC[C@H](C)Oc2ccc(NC(=O)CCC(F)(F)F)cc2C1=O | 949 nM | –
C[C@@H]1CN([C@@H](C)CO)C(=O)c2cc(NC(=O)C3CCCCC3)ccc2O[C@@H](C)CCCCO[C@H]1CN(C)C(=O)Nc1cccc2ccccc12 | > 50000 nM (inactive) | –
C[C@H](CO)N1C[C@H](C)[C@H](CN(C)C(=O)Nc2ccc(F)cc2)OCCCC[C@H](C)Oc2ccc(NC(=O)NC3CCCCC3)cc2C1=O | 3910 nM | –
C[C@H](CO)N1C[C@H](C)[C@H](CN(C)C(=O)Nc2ccc(F)cc2)OCCCC[C@H](C)Oc2ccc(NC(=O)C3CCCC3)cc2C1=O | 1750 nM | –
